# How the values were obtained:
# Experiment in all cases: relative viability (nuclei count vs DMSO), 5 days (fraction); higher = more cells survive
# 201T = system: 201T
# How it was run: (§1)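 Relative viability was taken as the ratio of nuclei in treated wells to nuclei in vehicle wells. Lung cancer cell lines in 1536-well plates received compounds by pin tool one day after seeding, either one drug alone or a fixed anchor-drug dose plus five library-drug doses (not always all listed) in √10 steps. Nuclei were counted on 4× images after 5 days of treatment, and values are medians of duplicate plates.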
# BEN = system: BEN
# How it was run: as §1
# EMC-BAC-2 = system: EMC-BAC-2
# How it was run: as §1
# HARA = system: HARA
# How it was run: as §1
# HCC-44 = system: HCC-44
# How it was run: as §1
# LCLC-103H = system: LCLC-103H
# How it was run: as §1
# LOU-NH91 = system: LOU-NH91
# How it was run: as §1
# NCI-H1395 = system: NCI-H1395
# How it was run: as §1
# NCI-H1993 = system: NCI-H1993
# How it was run: as §1
# NCI-H2023 = system: NCI-H2023
# How it was run: as §1
# NCI-H2087 = system: NCI-H2087
# How it was run: as §1
# NCI-H2126 = system: NCI-H2126
# How it was run: as §1
# NCI-H2347 = system: NCI-H2347
# How it was run: as §1
# NCI-H23 = system: NCI-H23
# How it was run: as §1
# NCI-H3122 = system: NCI-H3122
# How it was run: as §1
# NCI-H441 = system: NCI-H441
# How it was run: as §1
# NCI-H522 = system: NCI-H522
# How it was run: as §1
# NCI-H596 = system: NCI-H596
# How it was run: as §1
# NCI-H647 = system: NCI-H647
# How it was run: as §1
# NCI-H650 = system: NCI-H650
# How it was run: as §1
# NCI-H727 = system: NCI-H727
# How it was run: as §1
# NCI-H838 = system: NCI-H838
# How it was run: as §1
smiles,measurement,setting,value
Nc1ccn([C@@H]2O[C@H](CO)[C@@H](O)[C@@H]2O)c(=O)n1 [Cytarabine] + COc1cccc2cc(-c3nc([C@H]4CC[C@H](C(=O)O)CC4)n4ncnc(N)c34)[nH]c12 [OSI-027] (partner 0.5 µM),relative viability,201T; first compound 0.005 µM,0.711
same,relative viability,201T; first compound 0.01581 µM,0.782
same,relative viability,201T; first compound 0.05 µM,0.562
same,relative viability,201T; first compound 0.1581 µM,0.382
same,relative viability,201T; first compound 0.5 µM,0.272
same,relative viability,BEN; first compound 0.005 µM,0.5
same,relative viability,BEN; first compound 0.01581 µM,0.315
same,relative viability,BEN; first compound 0.05 µM,0.309
same,relative viability,BEN; first compound 0.1581 µM,0.263
same,relative viability,BEN; first compound 0.5 µM,0.217
same,relative viability,EMC-BAC-2; first compound 0.005 µM,0.413
same,relative viability,EMC-BAC-2; first compound 0.01581 µM,0.353
same,relative viability,EMC-BAC-2; first compound 0.05 µM,0.312
same,relative viability,EMC-BAC-2; first compound 0.1581 µM,0.27
same,relative viability,EMC-BAC-2; first compound 0.5 µM,0.22
same,relative viability,HARA; first compound 0.005 µM,0.438
same,relative viability,HARA; first compound 0.01581 µM,0.236
same,relative viability,HARA; first compound 0.05 µM,0.149
same,relative viability,HARA; first compound 0.1581 µM,0.107
same,relative viability,HARA; first compound 0.5 µM,0.101
same,relative viability,HCC-44; first compound 0.005 µM,0.376
same,relative viability,HCC-44; first compound 0.01581 µM,0.461
same,relative viability,HCC-44; first compound 0.05 µM,0.413
same,relative viability,HCC-44; first compound 0.1581 µM,0.189
same,relative viability,HCC-44; first compound 0.5 µM,0.226
same,relative viability,LCLC-103H; first compound 0.005 µM,0.412
same,relative viability,LCLC-103H; first compound 0.01581 µM,0.411
same,relative viability,LCLC-103H; first compound 0.05 µM,0.511
same,relative viability,LCLC-103H; first compound 0.1581 µM,0.418
same,relative viability,LCLC-103H; first compound 0.5 µM,0.473
same,relative viability,LOU-NH91; first compound 0.005 µM,0.664
same,relative viability,LOU-NH91; first compound 0.01581 µM,0.739
same,relative viability,LOU-NH91; first compound 0.05 µM,0.597
same,relative viability,LOU-NH91; first compound 0.1581 µM,0.486
same,relative viability,LOU-NH91; first compound 0.5 µM,0.585
same,relative viability,NCI-H1395; first compound 0.005 µM,0.592
same,relative viability,NCI-H1395; first compound 0.01581 µM,0.484
same,relative viability,NCI-H1395; first compound 0.05 µM,0.369
same,relative viability,NCI-H1395; first compound 0.1581 µM,0.349
same,relative viability,NCI-H1395; first compound 0.5 µM,0.328
same,relative viability,NCI-H1993; first compound 0.005 µM,0.599
same,relative viability,NCI-H1993; first compound 0.01581 µM,0.56
same,relative viability,NCI-H1993; first compound 0.05 µM,0.529
same,relative viability,NCI-H1993; first compound 0.1581 µM,0.484
same,relative viability,NCI-H1993; first compound 0.5 µM,0.498
same,relative viability,NCI-H2023; first compound 0.005 µM,0.212
same,relative viability,NCI-H2023; first compound 0.01581 µM,0.152
same,relative viability,NCI-H2023; first compound 0.05 µM,0.107
same,relative viability,NCI-H2023; first compound 0.1581 µM,0.104
same,relative viability,NCI-H2023; first compound 0.5 µM,0.102
same,relative viability,NCI-H2087; first compound 0.005 µM,0.406
same,relative viability,NCI-H2087; first compound 0.01581 µM,0.485
same,relative viability,NCI-H2087; first compound 0.05 µM,0.416
same,relative viability,NCI-H2087; first compound 0.1581 µM,0.192
same,relative viability,NCI-H2087; first compound 0.5 µM,0.121
same,relative viability,NCI-H2126; first compound 0.005 µM,0.62
same,relative viability,NCI-H2126; first compound 0.01581 µM,0.626
same,relative viability,NCI-H2126; first compound 0.05 µM,0.544
same,relative viability,NCI-H2126; first compound 0.1581 µM,0.533
same,relative viability,NCI-H2126; first compound 0.5 µM,0.45
same,relative viability,NCI-H2347; first compound 0.005 µM,0.401
same,relative viability,NCI-H2347; first compound 0.01581 µM,0.282
same,relative viability,NCI-H2347; first compound 0.05 µM,0.336
same,relative viability,NCI-H2347; first compound 0.1581 µM,0.268
same,relative viability,NCI-H2347; first compound 0.5 µM,0.327
same,relative viability,NCI-H23; first compound 0.005 µM,0.582
same,relative viability,NCI-H23; first compound 0.01581 µM,0.502
same,relative viability,NCI-H23; first compound 0.05 µM,0.507
same,relative viability,NCI-H23; first compound 0.1581 µM,0.272
same,relative viability,NCI-H23; first compound 0.5 µM,0.161
same,relative viability,NCI-H3122; first compound 0.005 µM,0.953
same,relative viability,NCI-H3122; first compound 0.01581 µM,0.873
same,relative viability,NCI-H3122; first compound 0.05 µM,0.811
same,relative viability,NCI-H3122; first compound 0.1581 µM,0.461
same,relative viability,NCI-H3122; first compound 0.5 µM,0.125
same,relative viability,NCI-H441; first compound 0.005 µM,0.629
same,relative viability,NCI-H441; first compound 0.01581 µM,0.638
same,relative viability,NCI-H441; first compound 0.05 µM,0.617
same,relative viability,NCI-H441; first compound 0.1581 µM,0.422
same,relative viability,NCI-H441; first compound 0.5 µM,0.291
same,relative viability,NCI-H522; first compound 0.005 µM,0.717
same,relative viability,NCI-H522; first compound 0.01581 µM,0.599
same,relative viability,NCI-H522; first compound 0.05 µM,0.395
same,relative viability,NCI-H522; first compound 0.1581 µM,0.48
same,relative viability,NCI-H522; first compound 0.5 µM,0.539
same,relative viability,NCI-H596; first compound 0.005 µM,0.682
same,relative viability,NCI-H596; first compound 0.01581 µM,0.702
same,relative viability,NCI-H596; first compound 0.05 µM,0.592
same,relative viability,NCI-H596; first compound 0.1581 µM,0.418
same,relative viability,NCI-H596; first compound 0.5 µM,0.317
same,relative viability,NCI-H647; first compound 0.005 µM,0.479
same,relative viability,NCI-H647; first compound 0.01581 µM,0.33
same,relative viability,NCI-H647; first compound 0.05 µM,0.271
same,relative viability,NCI-H647; first compound 0.1581 µM,0.105
same,relative viability,NCI-H647; first compound 0.5 µM,0.0867
same,relative viability,NCI-H650; first compound 0.005 µM,0.438
same,relative viability,NCI-H650; first compound 0.01581 µM,0.424
same,relative viability,NCI-H650; first compound 0.05 µM,0.235
same,relative viability,NCI-H650; first compound 0.1581 µM,0.194
same,relative viability,NCI-H650; first compound 0.5 µM,0.206
same,relative viability,NCI-H727; first compound 0.005 µM,0.589
same,relative viability,NCI-H727; first compound 0.01581 µM,0.558
same,relative viability,NCI-H727; first compound 0.05 µM,0.491
same,relative viability,NCI-H727; first compound 0.1581 µM,0.38
same,relative viability,NCI-H727; first compound 0.5 µM,0.347
same,relative viability,NCI-H838; first compound 0.005 µM,0.397
same,relative viability,NCI-H838; first compound 0.01581 µM,0.379
same,relative viability,NCI-H838; first compound 0.05 µM,0.4
same,relative viability,NCI-H838; first compound 0.1581 µM,0.273
same,relative viability,NCI-H838; first compound 0.5 µM,0.185

# Reference: the supplement of paper PMC10307832
